Data published in patent publication US20200347039A1, “CRYSTAL FORM OF RENAL OUTER MEDULLARY POTASSIUM CHANNEL INHIBITOR AND PREPARATION METHOD THEREOF” (JIANGSU HENGRUI MEDICINE CO., LTD., priority 2017, published 2020).

Assay: Pharmacokinetic experiment in SD rats after gavage (LC/MS/MS plasma concentration)
Format: in vivo
Conditions: for AUClast: SD rat experiment (5 mg/kg)
[1] = both sexes, rat, plasma, SD rats, po 5.0 mg/kg, suspension in 0.5% CMC-Na
[2] = SD rats, po 5.0 mg/kg, suspension in 0.5% CMC-Na

AUClast	AUC(0-t) [1]	CL/F [1]	half-life [1]	Vd/F (both sexes, rat, plasma, SD rats, po 5.0 mg/kg, suspension in 0.5% CMC-Na, read-out: Vz/F_obs)	T1/2 [2]	Vz/F_obs [2]	SMILES
12618 ng·h/mL	12600 ng·h/mL	6.7 mL/min/kg	4.21 h	2.45 L/kg			COc1cc(C(=O)NC2CCN(C[C@H](O)c3ccc4c(c3C)COC4=O)CC2)ncc1C#N.O=C(O)C(O)C(O)C(=O)O [Crystal form III, (R)-5-cyano-N-(1-(2-hydroxy-2-(4-methyl-1-carbonyl-1,3-dihydroisobenzofuran-5-yl)ethyl)piperidin-4-yl)-4-methoxypyridinecarboxamide tartrate]
9283 ng·h/mL	9280 ng·h/mL				3.62 h	3.019 L/kg	COc1cc(C(=O)NC2CCN(C[C@H](O)c3ccc4c(c3C)COC4=O)CC2)ncc1C#N [free state]
